Columns and labels:
[1] = system: K-562; assay: Inhibition of cells growth by colorimetric (SRB) assay, K-562; conditions: for GI50 / CC50: Homo sapiens, K562, 48 h; for GI50: read-out: GI50 K-562, SRB assay, 48 hours exposure; for CC50: read-out: LC50 K-562, SRB assay, 48 hours exposure; for TGI K-562: SRB assay, 48 hours exposure
Method in brief: (§1)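 Read-out is sulforhodamine B protein stain (OD 490 nm) after cold TCA fixation, following 48 h continuous exposure to samples spanning 10 to 10^−8 μg/ml.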

[2] = system: A-549; assay: Inhibition of cells growth by colorimetric (SRB) assay, A-549; conditions: for GI50 / CC50: Homo sapiens, A549, 48 h; for GI50: read-out: GI50 A-549, SRB assay, 48 hours exposure; for CC50: read-out: LC50 A-549, SRB assay, 48 hours exposure; for TGI A-549: SRB assay, 48 hours exposure
Method in brief: as §1

[3] = system: SK-MEL-28; assay: Inhibition of cells growth by colorimetric (SRB) assay, SK-MEL-28; conditions: for GI50 / CC50: Homo sapiens, SK-MEL-28, 48 h; for GI50: read-out: GI50 MEL-28, SRB assay, 48 hours exposure; for CC50: read-out: LC50 MEL-28, SRB assay, 48 hours exposure; for TGI MEL-28: SRB assay, 48 hours exposure
Method in brief: as §1

[4] = system: HT-29; assay: Inhibition of cells growth by colorimetric (SRB) assay, HT-29; conditions: for GI50 / CC50: Homo sapiens, HT-29, 48 h; for GI50: read-out: GI50 HT-29, SRB assay, 48 hours exposure; for CC50: read-out: LC50 HT-29, SRB assay, 48 hours exposure; for TGI HT-29: SRB assay, 48 hours exposure
Method in brief: as §1

[5] = system: LoVo; assay: Inhibition of cells growth by colorimetric (SRB) assay, LoVo; conditions: for GI50 / CC50: Homo sapiens, LoVo, 48 h; for GI50: read-out: GI50 LOVO, SRB assay, 48 hours exposure; for CC50: read-out: LC50 LOVO, SRB assay, 48 hours exposure; for TGI LOVO: SRB assay, 48 hours exposure
Method in brief: as §1

[6] = system: LoVo-Dox; assay: Inhibition of cells growth by colorimetric (SRB) assay, LoVo-Dox; conditions: for GI50 / CC50: Homo sapiens, 48 h; for GI50: read-out: GI50 LOVO-DOX, SRB assay, 48 hours exposure; for CC50: read-out: LC50 LOVO-DOX, SRB assay, 48 hours exposure; for TGI LOVO-DOX: SRB assay, 48 hours exposure
Method in brief: as §1

[7] = system: DU-145; assay: Inhibition of cells growth by colorimetric (SRB) assay, DU-145; conditions: for GI50 / CC50: Homo sapiens, DU-145, 48 h; for GI50: read-out: GI50 DU-145, SRB assay, 48 hours exposure; for CC50: read-out: LC50 DU-145, SRB assay, 48 hours exposure; for TGI DU-145: SRB assay, 48 hours exposure
Method in brief: as §1

[8] = system: LNCaP; assay: Inhibition of cells growth by colorimetric (SRB) assay, LNCaP; conditions: for GI50 / CC50: Homo sapiens, LNCaP, 48 h; for GI50: read-out: GI50 LN-caP, SRB assay, 48 hours exposure; for CC50: read-out: LC50 LN-caP, SRB assay, 48 hours exposure; for TGI LN-caP: SRB assay, 48 hours exposure
Method in brief: as §1

[9] = system: SK-BR-3; assay: Inhibition of cells growth by colorimetric (SRB) assay, SK-BR-3; conditions: for GI50 / CC50: Homo sapiens, SK-BR-3, 48 h; for GI50: read-out: GI50 SK-BR-3, SRB assay, 48 hours exposure; for CC50: read-out: LC50 SK-BR-3, SRB assay, 48 hours exposure; for TGI SK-BR-3: SRB assay, 48 hours exposure
Method in brief: as §1

[10] = system: IGROV-1; assay: Inhibition of cells growth by colorimetric (SRB) assay, IGROV-1; conditions: for GI50 / CC50: Homo sapiens, IGROV-1, 48 h; for GI50: read-out: GI50 IGROV, SRB assay, 48 hours exposure; for CC50: read-out: LC50 IGROV, SRB assay, 48 hours exposure; for TGI IGROV: SRB assay, 48 hours exposure
Method in brief: as §1

[11] = system: IGROV-ET; assay: Inhibition of cells growth by colorimetric (SRB) assay, IGROV-ET; conditions: for GI50 / CC50: Homo sapiens, 48 h; for GI50: read-out: GI50 IGROV-ET, SRB assay, 48 hours exposure; for CC50: read-out: LC50 IGROV-ET, SRB assay, 48 hours exposure; for TGI IGROV-ET: SRB assay, 48 hours exposure
Method in brief: as §1

[12] = system: SK-OV-3; assay: Inhibition of cells growth by colorimetric (SRB) assay, SK-OV-3; conditions: for GI50 / CC50: Homo sapiens, SK-OV-3, 48 h; for GI50: read-out: GI50 SKOV-3, SRB assay, 48 hours exposure; for CC50: read-out: LC50 SKOV-3, SRB assay, 48 hours exposure; for TGI SKOV-3: SRB assay, 48 hours exposure
Method in brief: as §1

[13] = system: PANC-1; assay: Inhibition of cells growth by colorimetric (SRB) assay, PANC-1; conditions: for GI50 / CC50: Homo sapiens, PANC-1, 48 h; for GI50: read-out: GI50 PANC-1, SRB assay, 48 hours exposure; for CC50: read-out: LC50 PANC-1, SRB assay, 48 hours exposure; for TGI PANC-1: SRB assay, 48 hours exposure
Method in brief: as §1

[14] = Inhibition of cells growth by colorimetric (SRB) assay, HMEC1; conditions: human, HMEC1 cells, LC50 H-MEC-1, SRB assay, 48 hours exposure
[15] = system: HMEC1; assay: as above; conditions: for GI50: Homo sapiens, HMEC-1, 48 h, read-out: GI50 H-MEC-1, SRB assay, 48 hours exposure; for TGI H-MEC-1: SRB assay, 48 hours exposure, in M (unit assumed)

Nc1nccc2c(-c3cccs3)c3cccnc3n12 [Compound 65]
26.4 µM: GI50 [2]
3.75E−05: TGI K-562 [1] | TGI A-549 [2] | TGI MEL-28 [3] | TGI HT-29 [4] | TGI LOVO [5] | TGI LOVO-DOX [6] | TGI DU-145 [7] | TGI LN-caP [8] | TGI SK-BR-3 [9] | TGI IGROV [10] | TGI IGROV-ET [11] | TGI SKOV-3 [12] | TGI PANC-1 [13] | TGI H-MEC-1 [15]
1.46 µM: GI50 [9]
11.8 µM: GI50 [15]
17.1 µM: GI50 [8]
≥ 37.5 µM: GI50 [1] | CC50 [1] | CC50 [2] | GI50 [3] | CC50 [3] | GI50 [4] | CC50 [4] | GI50 [5] | CC50 [5] | GI50 [6] | CC50 [6] | GI50 [7] | CC50 [7] | CC50 [8] | CC50 [9] | GI50 [10] | CC50 [10] | GI50 [11] | CC50 [11] | GI50 [12] | CC50 [12] | GI50 [13] | CC50 [13] | CC50 at 48 h [14]

Nc1nccc(-c2c3cc(F)c(Cl)nc3n3c(N)nccc23)n1 [Compound 50]
8.01 µM: GI50 [15]
12.9 µM: GI50 [11]
2.44E−05: TGI H-MEC-1 [15]
11.6 µM: GI50 [9]
0.886 µM: GI50 [8]
5.25 µM: GI50 [2]
15.8 µM: GI50 [12]
16.5 µM: GI50 [7]
3.03E−05: TGI K-562 [1] | TGI A-549 [2] | TGI MEL-28 [3] | TGI HT-29 [4] | TGI LOVO [5] | TGI LOVO-DOX [6] | TGI DU-145 [7] | TGI SK-BR-3 [9] | TGI IGROV [10] | TGI IGROV-ET [11] | TGI SKOV-3 [12] | TGI PANC-1 [13]
≥ 30.3 µM: GI50 [1] | CC50 [1] | CC50 [2] | GI50 [3] | CC50 [3] | GI50 [4] | CC50 [4] | CC50 [5] | CC50 [6] | CC50 [7] | CC50 [8] | CC50 [9] | CC50 [10] | CC50 [11] | CC50 [12] | GI50 [13] | CC50 [13] | CC50 at 48 h [14]
1.88E−06: TGI LN-caP [8]
12.6 µM: GI50 [6]
12 µM: GI50 [5]
20.3 µM: GI50 [10]

From patent US7772241B2, “Variolin derivatives and their use as antitumor agents” (Pharma Mar S.A., priority 2001, dated 2010)
